Measurements as given in US20050222275A1 (priority 2001, published 2005).
Like-named read-outs stand apart in the source and are kept apart here.

Key:
[1] = test system: Scrapie (IC) infected Hamsters; type: in vivo, Syrian hamsters; settings: for Incubation period: IC scrapie-infected hamsters, 7.5% (w/v) DMSO in drinking water, median; for Percentage of infectivity (%): relative to control
[2] = biological target: PrP^Sc (Mesocricetus auratus, UniProt P04273); type: in vivo, hamster; settings: IC-inoculated, DMSO 14-end group, brain homogenate
Sequence of PrP^Sc (Mesocricetus auratus, UniProt P04273) (P04273 23-231 limits assumed): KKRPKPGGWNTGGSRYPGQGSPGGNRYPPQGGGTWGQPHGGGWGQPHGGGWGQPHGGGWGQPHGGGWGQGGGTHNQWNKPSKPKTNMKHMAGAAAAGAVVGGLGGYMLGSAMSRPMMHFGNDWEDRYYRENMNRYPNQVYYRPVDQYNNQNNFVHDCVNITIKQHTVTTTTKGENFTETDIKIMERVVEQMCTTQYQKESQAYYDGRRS

[3] = test system: CJD patients; settings: human, in vivo
[4] = test system: PrP^Sc; settings: human, in vivo
[5] = test system: Scrapie (IP) infected Hamsters; settings: for Incubation period: IP scrapie-infected hamsters, 7.5% (w/v) DMSO in drinking water
[6] = test system: scrapie-infected neuroblastoma cells (ScN2a); settings: cited from earlier work
[7] = test system: amyloid fibrils; settings: cited from earlier work
[8] = biological target: T1, Aβ peptide (Homo sapiens, UniProt P05067); settings: cited from earlier work
T1 construct: Aβ peptide intermediate with a high β-sheet content
T1 sequence (P05067 672-711 limits assumed): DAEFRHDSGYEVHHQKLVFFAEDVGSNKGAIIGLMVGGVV

[9] = test system: caseic amyloidosis; settings: mouse, in vivo, po; cited from earlier work
[10] = test system: amyloidotic diseases; settings: human, in vivo; cited from earlier work
[11] = in vivo; cited from earlier work
[12] = in vivo, po; cited from earlier work

C[S+](C)[O-] [DMSO, dimethyl sulfoxide]
Incubation period ([1]; 0-14 dpi): 85 days | Incubation period ([1]; 0-end dpi): 101 days | Incubation period ([1]; 14-end dpi): 107 days | Incubation period ([1]; 55-end dpi): 91 days | effect on incubation time compared with control group ([1]; IC, 0-14 group): significant deleterious effect | Infectivity (Log I.D 50) ([1]; IC, DMSO treatment 0-14 dpi): 7.1 Log I.D 50 | Variance from control group [P < 0.05] ([1]; IC, DMSO treatment 0-14 dpi): + ([+] means statistically significant difference [p < 0.05]) | Percentage of infectivity (%) ([1]; IC, DMSO treatment 0-14 dpi): 1258% | Infectivity (Log I.D 50) ([1]; IC, DMSO treatment 0-end dpi): 4.9 Log I.D 50 | Variance from control group [P < 0.05] ([1]; IC, DMSO treatment 0-end dpi): + ([+] means statistically significant difference [p < 0.05]) | Percentage of infectivity (%) ([1]; IC, DMSO treatment 0-end dpi): 3.16% | Infectivity (Log I.D 50) ([1]; IC, DMSO treatment 14-end dpi): 4.5 Log I.D 50 | Variance from control group [P < 0.05] ([1]; IC, DMSO treatment 14-end dpi): + ([+] means statistically significant difference [p < 0.05]) | Percentage of infectivity (%) ([1]; IC, DMSO treatment 14-end dpi): 3.16% | Infectivity (Log I.D 50) ([1]; IC, DMSO treatment 55-end dpi): 6.4 Log I.D 50 | difference from control group in incubation time ([1]; IC, DMSO-treated from 55 dpi-end): no statistically significant difference | incubation time for the disease compared with control group ([1]; IC, treatment plans 0-end or 14-end): statistically significant increase | PrP^Sc in sample from untreated animal relative to DMSO-treated animal (band intensity) ([2]; 90 dpi): about 10 times | PrP in DMSO-treated animals at 90-110 dpi compared with untreated animals at 60 dpi [2]: equivalent | PrP^Sc in DMSO-treated animals at 110 dpi compared with untreated animals at 90 dpi (final stages) [2]: equivalent amounts | cerebellar syndrome during the treatment [3]: progressed | cognitive decline during the treatment [3]: no further cognitive decline | deterioration, medical evaluation [3]: slower than expected | titubation and tremor, medical evaluation [3]: improvement | secreted PrP^Sc in the urine [4]: continuously increasing amounts | Incubation period ([5]; 0 - end dpi): 127.6 days | Incubation period ([5]; 28 - end dpi): 126.6 days | Incubation period ([5]; 55 - end dpi): 136.8 days | Variance from control group [P < 0.05] ([5]; IP, DMSO treatment 0 - end dpi): + ([+] means statistically significant difference [p < 0.05]) | Variance from control group [P < 0.05] ([5]; IP, DMSO treatment 28 - end dpi): + ([+] means statistically significant difference [p < 0.05]) | Variance from control group [P < 0.05] ([5]; IP, DMSO treatment 55 - end dpi): + ([+] means statistically significant difference [p < 0.05]) | overall effect for the animals treated with DMSO ([5]; IP, all treatment plans of Table 2): overall beneficial effect | beneficial effect on longevity ([5]; IP, groups 0-end and 28-end): marginal | longevity ([5]; IP, treated only from 55 dpi onwards): most remarkable longevity | adverse DMSO effects ([5]; hamsters, DMSO in drinking water): weight loss | formation of PrP^Sc from newly synthesized PrP^C [6]: interfered with the formation of PrP^Sc | assembly of amyloid fibrils [7]: blocks the assembly of amyloid fibrils | disassembly of preexisting fibrils [7]: does not interfere | formation of Aβ peptide intermediate with a high β-sheet content [8]: block the formation | development of the disease [9]: prevented the development of the disease | patients showing clinical improvement [10]: about 50% | urine of patients after DMSO [10]: contains material that can form fibrils | side effects [11]: no serious side effects | time to peak concentration [12]: 4 h
